Activity calls are given as the source filed them. No cut-off for these calls is given here.
How the values were obtained:
Mus musculus [1] = assay: Anti-colitis activity against DSS-induced C57BL/6 mouse model of subchronic relapsing colitis assessed as effect on body weight at 0.3 mg/kg, po administered once daily for 14 days starting from day 5 post DSS-challenge and measured after day 12 to day 18; assay type: functional, organism-based
Mus musculus [2] = assay: Anti-colitis activity against DSS-induced C57BL/6 mouse model of subchronic relapsing colitis assessed as reduction in stool consistency scores at 0.3 mg/kg, po administered once daily for 14 days starting from day 5 post DSS challenge and measured on day 19; assay type: functional, organism-based
Mus musculus [3] = assay: Anti-colitis activity against DSS-induced C57BL/6 mouse model of subchronic relapsing colitis assessed as reduction in stool bleeding scores at 0.3 mg/kg, po administered once daily for 14 days starting from day 5 post DSS challenge and measured on day 19; assay type: functional, organism-based
Mus musculus [4] = assay: Anti-colitis activity against DSS-induced C57BL/6 mouse model of subchronic relapsing colitis assessed as reduction in disease activity index at 0.3 mg/kg, po administered once daily for 14 days starting from day 5 post DSS challenge and measured on day 19; assay type: functional, organism-based
Mus musculus [5] = assay: Anti-colitis activity against DSS-induced C57BL/6 mouse model of subchronic relapsing colitis assessed as reduction in colon swelling at 0.15 mg/kg, po administered once daily for 14 days starting from day 5 post DSS-challenge cotreated with 20 mg/kg berberine and measured after day 12 to day 18; assay type: functional, organism-based
Mus musculus [6] = assay: Anti-colitis activity against DSS-induced C57BL/6 mouse model of chronic relapsing colitis assessed as reduction in stool consistency score at 0.3 mg/kg, po administered once daily for 30 days starting from day 13 post DSS-challenge measured on day 24; assay type: functional, organism-based
Mus musculus [7] = assay: Anti-colitis activity against DSS-induced C57BL/6 mouse model of chronic relapsing colitis assessed as reduction in disease activity index at 0.3 mg/kg, po administered once daily for 30 days starting from day 13 post DSS-challenge and measured on day 24; assay type: functional, organism-based
Mus musculus [8] = assay: Anti-colitis activity against DSS-induced C57BL/6 mouse model of chronic relapsing colitis assessed as reduction in stool consistency score at 0.15 mg/kg, po administered once daily for 30 days starting from day 13 post DSS-challenge cotreated with 20 mg/kg berberine measured on day 43; assay type: functional, organism-based
Mus musculus [9] = assay: Anti-colitis activity against DSS-induced C57BL/6 mouse model of chronic relapsing colitis assessed as reduction in disease activity index at 0.15 mg/kg, po administered once daily for 30 days starting from day 13 post DSS-challenge cotreated with 20 mg/kg berberine and measured on day 43; assay type: functional, organism-based
Mus musculus [10] = assay: Anti-colitis activity against DSS-induced C57BL/6 mouse model of subchronic relapsing colitis assessed as reduction in DSS-induced colon swelling at 0.15 mg/kg, po administered once daily for 30 days starting from day 13 post DSS-challenge cotreated with 20 mg/kg berberine; assay type: functional, organism-based
Mus musculus [11] = assay: Anti-colitis activity against DSS-induced C57BL/6 mouse model of chronic relapsing colitis assessed as reduction in DSS-induced loss of colon crypt and columnar epithelium at 0.3 mg/kg, po administered once daily for 30 days starting from day 13 post DSS-challenge; assay type: functional, organism-based
Mus musculus [12] = assay: (§1) Anti-colitis activity against DSS-induced C57BL/6 mouse model of chronic relapsing colitis assessed as reduction in DSS-induced inflammatory cell infiltration in colon at 0.3 mg/kg, po administered once daily for 30 days starting from day 13 post DSS-challenge by hematoxylin and eosin staining based light microscopic analysis; assay type: functional, organism-based
Mus musculus [13] = assay: as §1, with “loss of” for “inflammatory cell infiltration in”, “colon crypt and columnar epithelium” for “colon”, “0.15” for “0.3”, “DSS-challenge cotreated with 20 mg/kg berberine” for “DSS-challenge”; assay type: functional, organism-based
Mus musculus [14] = assay: Anti-colitis activity against DSS-induced C57BL/6 mouse model of chronic relapsing colitis assessed as reduction in DSS-induced inflammatory cell infiltration in colon at 0.15 mg/kg, po administered once daily for 30 days starting from day 13 post DSS-challenge cotreated with 20 mg/kg berberine; assay type: functional, organism-based
Mus musculus [15] = assay: as §1, with “mononuclear” for “inflammatory”, “spleen” for “colon”; assay type: functional, organism-based
Mus musculus [16] = assay: as §1, with “mononuclear” for “inflammatory”, “spleen” for “colon”, “0.15” for “0.3”, “DSS-challenge cotreated with 20 mg/kg berberine” for “DSS-challenge”; assay type: functional, organism-based
[17] = (§2) Toxicity in DSS-induced C57BL/6 mouse model of chronic relapsing colitis assessed as induction of abnormalities in heart at 0.3 mg/kg, po administered once daily for 30 days starting from day 13 post DSS-challenge by hematoxylin and eosin staining based light microscopic analysis; assay type: organism-based; conditions: in vivo, 720 h
[18] = as §2, with “0.15” for “0.3”, “DSS-challenge cotreated with 20 mg/kg berberine” for “DSS-challenge”; assay type: organism-based; conditions: in vivo, 720 h
Mus musculus [19] = assay: Antiinflammatory activity against DSS-induced C57BL/6 mouse model of subchronic relapsing colitis assessed as reduction in IL6 mRNA level at 0.3 mg/kg, po administered once daily for 14 days starting from day 5 post DSS-challenge by RT-qPCR analysis; assay type: functional, organism-based
Mus musculus [20] = assay: Antiinflammatory activity against DSS-induced C57BL/6 mouse model of subchronic relapsing colitis assessed as reduction in IL17 mRNA level at 0.15 mg/kg, po administered once daily for 14 days starting from day 5 post DSS-challenge cotreated with 20 mg/kg berberine by RT-qPCR analysis; assay type: functional, organism-based
Mus musculus [21] = assay: Effect on total STAT3 expression in DSS-induced C57BL/6 mouse model of subchronic relapsing colitis at 0.3 mg/kg, po administered once daily for 14 days starting from day 5 post DSS-challenge by Western blot analysis; assay type: ADME, organism-based; conditions: in vivo, 336 h
THP-1 [22] = assay: Antiinflammatory activity in human THP1 cells assessed as reduction in LPS-induced IL6 mRNA level at 1 uM incubated for 1 hr followed by LPS challenge and measured after 4 to 6 hrs by q-PCR method; assay type: functional, cell-based
THP-1 [23] = assay: Antiinflammatory activity in human THP1 cells assessed as reduction in LPS-induced TNFalpha mRNA level at 1 uM incubated for 1 hr followed by LPS challenge and measured after 4 to 6 hrs by q-PCR method; assay type: functional, cell-based
THP-1 [24] = assay: Antiinflammatory activity in human THP1 cells assessed as reduction in LPS-induced IL6 mRNA level at 0.5 uM cotreated with 0.5 uM berberine incubated for 1 hr followed by LPS challenge and measured after 4 to 6 hrs by q-PCR method; assay type: functional, cell-based
THP-1 [25] = assay: Antiinflammatory activity in human THP1 cells assessed as reduction in LPS-induced TNFalpha mRNA level at 0.5 uM cotreated with 0.5 uM berberine incubated for 1 hr followed by LPS challenge and measured after 4 to 6 hrs by q-PCR method; assay type: functional, cell-based
[26] = molecular target: Signal transducer and activator of transcription 3 (Homo sapiens) (UniProt P40763); assay: Inhibition of STAT3 activation in human THP1 cells assessed as reduction in LPS-induced phosphorylated STAT3 expression at 1 uM incubated for 1 hr followed by LPS challenge and measured after 4 to 6 hrs by Western blot analysis; assay type: cell-based; conditions: THP-1
Mus musculus [27] = assay: Anti-colitis activity against DSS-induced C57BL/6 mouse model of subchronic relapsing colitis assessed as reduction in phosphorylated STAT3 level at 0.3 mg/kg, po administered once daily for 14 days starting from day 5 post DSS-challenge cotreated with 20 mg/kg berberine by Western blot analysis; assay type: functional, organism-based

Chain of Signal transducer and activator of transcription 3 (Homo sapiens) (P40763 whole entry): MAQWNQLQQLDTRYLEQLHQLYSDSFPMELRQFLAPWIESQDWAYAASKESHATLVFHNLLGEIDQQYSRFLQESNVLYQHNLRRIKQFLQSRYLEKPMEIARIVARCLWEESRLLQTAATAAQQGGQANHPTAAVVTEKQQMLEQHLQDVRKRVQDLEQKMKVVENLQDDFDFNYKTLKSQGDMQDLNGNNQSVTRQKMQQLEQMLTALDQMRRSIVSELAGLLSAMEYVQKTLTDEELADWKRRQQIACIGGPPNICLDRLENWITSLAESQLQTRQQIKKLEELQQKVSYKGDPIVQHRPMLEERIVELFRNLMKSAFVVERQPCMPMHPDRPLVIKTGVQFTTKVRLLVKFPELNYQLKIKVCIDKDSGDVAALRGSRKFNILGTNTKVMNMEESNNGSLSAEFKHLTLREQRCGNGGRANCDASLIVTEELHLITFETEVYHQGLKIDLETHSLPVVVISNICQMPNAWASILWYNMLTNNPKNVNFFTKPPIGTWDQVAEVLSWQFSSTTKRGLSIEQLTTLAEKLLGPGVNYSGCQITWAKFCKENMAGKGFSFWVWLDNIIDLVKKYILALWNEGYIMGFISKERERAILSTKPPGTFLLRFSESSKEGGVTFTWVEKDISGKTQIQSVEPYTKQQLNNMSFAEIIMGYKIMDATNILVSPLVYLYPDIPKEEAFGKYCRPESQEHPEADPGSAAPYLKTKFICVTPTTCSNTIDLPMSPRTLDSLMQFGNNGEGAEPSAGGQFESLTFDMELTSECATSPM

With `CCCCCCCCc1ccc(CCC(N)(CO)CO)cc1.Cl` [FINGOLIMOD HYDROCHLORIDE] the Activity (Mus musculus [1]) was “inactive”, the Activity (Mus musculus [2]) was “Active” and the Activity (Mus musculus [3]) was “Active”. For the same compound, the Activity (Mus musculus [4]) was “Active”, the Activity (Mus musculus [5]) was “inactive” and the Activity (Mus musculus [6]) was “Active”. For the same compound, the Activity (Mus musculus [7]) was “Active”, the Activity (Mus musculus [8]) was “Active” and the Activity (Mus musculus [9]) was “Active”. For the same compound, the Activity (Mus musculus [10]) was “inactive”, the Activity (Mus musculus [11]) was “Active” and the Activity (Mus musculus [12]) was “Active”. For the same compound, the Activity (Mus musculus [13]) was “Active”, the Activity (Mus musculus [14]) was “Active” and the Activity (Mus musculus [15]) was “Active”. For the same compound, the Activity (Mus musculus [16]) was “Active”, the Activity [17] was “Non-Toxic” and the Activity [18] was “Non-Toxic”. For the same compound, the Activity (Mus musculus [19]) was “Active”, the Activity (Mus musculus [20]) was “Active” and the Activity (Mus musculus [21]) was “Non-Toxic”. For the same compound, the Activity (THP-1 [22]) was “Active”, the Activity (THP-1 [23]) was “Active” and the Activity (THP-1 [24]) was “Active”. For the same compound, the Activity (THP-1 [25]) was “Active”, the inhibition [26] was “Active” and the Activity (Mus musculus [27]) was “Active”.
